According to patent US8877161B2 (priority 2011, dated 2014):
pIC50: −log10 of the molar value. Read-outs that look alike come from different tables or passages of the source. Marks after values point to notes of the source that are not given here. Where a SMILES comes first, the peptide text is derived from it.

Key:
Type in all cases: binding
[1] = molecular target: cholera toxin B subunit (CTB); ligand GM1 (Vibrio cholerae serotype O1, UniProt P01556)
[2] = molecular target: cholera toxin B subunit (CTB); ligand fucosyl-GM1 (F-GM1) (Vibrio cholerae serotype O1, UniProt P01556)
[3] = molecular target: cholera toxin B subunit (CTB); ligand LOSGM1 (Vibrio cholerae serotype O1, UniProt P01556)
[4] = molecular target: cholera toxin B subunit (CTB); ligand GD1b (Vibrio cholerae serotype O1, UniProt P01556)
[5] = molecular target: cholera toxin B subunit (CTB); ligand Lipid AP (Vibrio cholerae serotype O1, UniProt P01556)
[6] = system: rabbit anti-GM1 antibodies (AbGM1); settings: for pIC50: AbGM1-1 lot # 431A; for Inhibition percent at IC50AbGM1-1: GM1/AbGM1-1 / Inhibition percent at IC50 AbGM1-1: AbGM1-3 / Inhibition percent at IC50 AbGM1-1: AbeGM1-4 / Inhibition percent at IC50 AbGM1-1: AbGM1-5 / Inhibition percent at IC50 AbGM1-1: AbGM1-1 / Inhibition percent at IC50 AbGM1-1: AbGM1-2: peptide at its IC50 AbGM1-1; for Inhibition percent at IC50 AbGM1-1: AbGM1-3: antibody lot # 101J; for Inhibition percent at IC50 AbGM1-1: AbeGM1-4: antibody lot # 104H; for Inhibition percent at IC50 AbGM1-1: AbGM1-1: antibody lot # 431A, means of 4 values
AbGM2 (GM2/AbGM2) = settings: lot # D710-2; for Inhibition percent at IC50AbGM1-1: GM2/AbGM2: peptide at its IC50 AbGM1-1
AbGM4 (GM4/AbGM4) = settings: lot # GMR6; for Inhibition percent at IC50AbGM1-1: GM4/AbGM4: peptide at its IC50 AbGM1-1
AbGD1a (GD1a/AbGD1a) = settings: lot # 109H; for Inhibition percent at IC50AbGM1-1: GD1a/AbGD1a: peptide at its IC50 AbGM1-1
AbGD1b (GD1b/AbGD1b) = settings: lot # D710-6; for Inhibition percent at IC50AbGM1-1: GD1b/AbGD1b: peptide at its IC50 AbGM1-1
AbGD3 (GD3/AbGD3) = settings: peptide at its IC50 AbGM1-1; lot # R24
AbF-GM1 (F-GM1/AbF-GM1) = settings: lot # G351; for Inhibition percent at IC50AbGM1-1: F-GM1/AbF-GM1: peptide at its IC50 AbGM1-1
AbSGPG (SGPG/AbSGPG) = settings: lot # D710-5; for Inhibition percent at IC50AbGM1-1: SGPG/AbSGPG: peptide at its IC50 AbGM1-1
[7] = antibody lot # 105T, dilution 1:500
[8] = antibody lot # 431B, dilution 1:500
[9] = treatment with 500 pmol/mL of PGM1-2

Chain of cholera toxin B subunit (CTB); ligand GD1b (P01556 22-124 limits assumed): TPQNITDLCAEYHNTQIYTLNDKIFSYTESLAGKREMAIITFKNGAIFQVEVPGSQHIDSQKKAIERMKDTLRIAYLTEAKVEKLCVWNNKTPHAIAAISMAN
Chain of cholera toxin B subunit (CTB); ligand Lipid AP (P01556 22-124 limits assumed): as above
Chain of cholera toxin B subunit (CTB); ligand GM1 (P01556 22-124 limits assumed): as above
Chain of cholera toxin B subunit (CTB); ligand LOSGM1 (P01556 22-124 limits assumed): as above
Chain of cholera toxin B subunit (CTB); ligand fucosyl-GM1 (F-GM1) (P01556 22-124 limits assumed): as above

| Compound | IC50 GM1 [1] [nM] | Inhibition percent at IC50 GM1: GM1 [1] [%] | Inhibition percent at IC50 GM1: F-GM1 [2] [%] | Inhibition percent at IC50 GM1: LOSGM1 [3] [%] | Inhibition percent at IC50 GM1: GD1b [4] [%] | Inhibition percent at IC50 GM1: Lipid AP [5] [%] | pIC50 ([6]; Table 4, dilution 1:500) | pIC50 ([6]; Table 5) | Inhibition percent at IC50AbGM1-1: GM1/AbGM1-1 ([6]; Table 5, lot # 431A) | Inhibition percent at IC50 AbGM1-1: AbGM1-3 ([6]; dilution 1:500) | Inhibition percent at IC50 AbGM1-1: AbeGM1-4 ([6]; dilution 1:500) | Inhibition percent at IC50 AbGM1-1: AbGM1-5 [6, 7] [%] | Inhibition percent at IC50 AbGM1-1: AbGM1-1 ([6]; dilution 1:500) | Inhibition percent at IC50 AbGM1-1: AbGM1-2 [6, 8] [%] | Inhibition percent at IC50AbGM1-1: GM2/AbGM2 (AbGM2 (GM2/AbGM2)) [%] | Inhibition percent at IC50AbGM1-1: GM4/AbGM4 (AbGM4 (GM4/AbGM4)) [%] | Inhibition percent at IC50AbGM1-1: GD1a/AbGD1a (AbGD1a (GD1a/AbGD1a)) [%] | Inhibition percent at IC50AbGM1-1: GD1b/AbGD1b (AbGD1b (GD1b/AbGD1b)) [%] | Inhibition percent at IC50AbGM1-1: GD3/AbGD3 (AbGD3 (GD3/AbGD3)) [%] | Inhibition percent at IC50AbGM1-1: F-GM1/AbF-GM1 (AbF-GM1 (F-GM1/AbF-GM1)) [%] | also measured |
| --- | --- | --- | --- | --- | --- | --- | --- | --- | --- | --- | --- | --- | --- | --- | --- | --- | --- | --- | --- | --- | --- |
| CC[C@H](C)[C@H](NC(=O)[C@@H](N)CCC(N)=O)C(=O)N[C@@H](CC(N)=O)C(=O)N[C@H](C(=O)N[C@@H](C)C(=O)N[C@@H](CCCCN)C(=O)N[C@@H](Cc1c[nH]c2ccccc12)C(=O)N[C@@H](Cc1c[nH]c2ccccc12)C(=O)N[C@@H](CCCCN)C(=O)N[C@H](C(=O)N[C@@H](Cc1c[nH]cn1)C(=O)N[C@@H](Cc1ccccc1)C(=O)O)[C@@H](C)O)[C@@H](C)O [PGM1-5, QINTAKWWKTHF] (H-QINTAKWWKTHF-OH) | 34.4 | 50 | 52.1 | 50.0 | 39.8 | 0 | 6.32 | 6.32 | 50% | 12.1% | 0% | 32.9 | 50% | 0 | 6.5 | 0 | 0 | 0 | 0 | 0 | Inhibition percent at IC50AbGM1-1: SGPG/AbSGPG (AbSGPG (SGPG/AbSGPG)): 0% |
| CC(C)C[C@H](NC(=O)[C@H](CCCCN)NC(=O)[C@@H](NC(=O)[C@H](Cc1ccccc1)NC(=O)[C@H](Cc1c[nH]c2ccccc12)NC(=O)[C@H](C)NC(=O)[C@@H]1CCCN1C(=O)[C@@H](N)Cc1ccccc1)[C@@H](C)O)C(=O)N[C@@H](Cc1ccc(O)cc1)C(=O)N1CCC[C@H]1C(=O)N[C@@H](CCCNC(=N)N)C(=O)N[C@H](C(=O)O)[C@@H](C)O [PGM1-4, FPAWFTKLYPRT] (H-FPAWFTKLYPRT-OH) | 77.4 | 50 | 62.1 | 51.1 | 18.9 | 0 | 6.76 | 6.76 | 50% | 12.6% | 33.9% | 0 | 50% | 70.1 | 0 | 0 | 0 | 12.1 | 0 | 25.7 | Inhibition percent at IC50AbGM1-1: SGPG/AbSGPG (AbSGPG (SGPG/AbSGPG)): 0% |
| CSCC[C@H](NC(=O)[C@H](CO)NC(=O)[C@@H]1CCCN1C(=O)[C@H](Cc1ccccc1)NC(=O)[C@H](Cc1c[nH]c2ccccc12)NC(=O)[C@H](CCCCN)NC(=O)[C@H](Cc1c[nH]cn1)NC(=O)[C@H](Cc1ccccc1)NC(=O)[C@@H]1CCCN1C(=O)[C@H](CO)NC(=O)[C@@H](N)Cc1ccc(O)cc1)C(=O)N[C@@H](Cc1c[nH]cn1)C(=O)O [PGM1-2, YSPFHKWFPSMH] (H-YSPFHKWFPSMH-OH; N-terminus and C-terminus assumed) | 46.1 | 50 | 52.1 | 47.9 | 21.9 | 0 |  |  |  | 65.7^a percent | 15.1^a percent |  | 0^a percent |  |  |  |  |  |  |  | Inhibition percent: GM1/AbGM1-1 ([6]; Table 5, treatment with 500 pmol/mL of PGM1-2, lot # 431A): 0^b percent; Inhibition percent: AbGM1-5 ([6]; treatment with 500 pmol/mL of PGM1-2, antibody lot # 105T, dilution 1:500): 0^b percent; Inhibition percent: AbGM1-2 ([6]; treatment with 500 pmol/mL of PGM1-2, antibody lot # 431B, dilution 1:500): 32.1^b percent; Inhibition percent: GM2/AbGM2 (AbGM2 (GM2/AbGM2); [9]): 0^b percent; Inhibition percent: GM4/AbGM4 (AbGM4 (GM4/AbGM4); [9]): 0^b percent; Inhibition percent: GD1a/AbGD1a (AbGD1a (GD1a/AbGD1a); [9]): 0^b percent; Inhibition percent: GD1b/AbGD1b (AbGD1b (GD1b/AbGD1b); [9]): 23.6^b percent; Inhibition percent: F-GM1/AbF-GM1 (AbF-GM1 (F-GM1/AbF-GM1); [9]): 0^b percent; Inhibition percent: SGPG/AbSGPG (AbSGPG (SGPG/AbSGPG); [9]): 0^b percent |
| CC[C@H](C)[C@H](N)C(=O)N1CCC[C@H]1C(=O)N[C@@H](CCC(N)=O)C(=O)N[C@H](C(=O)N[C@@H](Cc1c[nH]c2ccccc12)C(=O)N[C@@H](CCCNC(=N)N)C(=O)N[C@@H](CC(=O)O)C(=O)N[C@@H](Cc1c[nH]c2ccccc12)C(=O)N[C@@H](Cc1ccccc1)C(=O)N[C@@H](CCCCN)C(=O)N[C@@H](CC(C)C)C(=O)N1CCC[C@H]1C(=O)O)C(C)C [PGM1-3, IPQVWRDWFKLP] (H-IPQVWRDWFKLP-OH) | 9.6 | 50 | 43.9 | 52.1 | 37.9 | 0 | 7.12 | 7.12 | 50% | 42.5% | 30.3% | 59.1 | 50% | 62.1 | 0 | 0 | 0 | 0 | 0 | 0 | Inhibition percent at IC50AbGM1-1: SGPG/AbSGPG (AbSGPG (SGPG/AbSGPG)): 0% |
| DASKALRSSGMP [PGM1-6] |  | 0 |  |  |  |  | 6.53 | 6.53 | 50% | 0% | 55.1% | 18.7 | 50% | 45.1 | 0 | 0 | 0 | 8.9 | 0 | 23.4 | Inhibition percent: F-GM1 [2]: 0^d percent; Inhibition percent: LOSGM1 [3]: 0^d percent; Inhibition percent: GD1b [4]: 0^d percent; Inhibition percent: Lipid AP [5]: 0^d percent; Inhibition percent at IC50AbGM1-1: SGPG/AbSGPG (AbSGPG (SGPG/AbSGPG)): 0% |
| CC(C)C[C@H](NC(=O)[C@H](CC(N)=O)NC(=O)[C@@H]1CCCN1C(=O)[C@H](Cc1ccccc1)NC(=O)[C@H](Cc1c[nH]c2ccccc12)NC(=O)[C@@H](NC(=O)[C@H](CCCCN)NC(=O)[C@H](Cc1c[nH]c2ccccc12)NC(=O)[C@H](CO)NC(=O)[C@@H](N)C(C)C)[C@@H](C)O)C(=O)N[C@@H](C)C(=O)N[C@H](C(=O)O)C(C)C [PGM1-1, VSWKTWFPNLAV] (H-VSWKTWFPNLAV-OH; N-terminus and C-terminus assumed) | 38.0 |  | 45.8 | 50.8 | 39.9 | 0 | 6.56 | 6.56 | 50^b percent | 0% | 72.1% | 44.6 | 50^a percent | 27.1 | 11.2 | 0 | 0 | 32.1 | 0 | 42.1 | Inhibition percent at IC50AbGM1-1: SGPG/AbSGPG (AbSGPG (SGPG/AbSGPG)): 0% |
